Measured values published in patent publication EP0082731A1, “The use of peptides as medicaments” (NOVO INDUSTRI A/S, priority 1981, dated 1983).

Assays:
rats [1] = assay: Experiment A: effect on IRI-release in glucose-infused rats in vivo (RIA on plasma); set-up: species or system Wistar strain; conditions: anaesthetized rats, i.v. glucose 1.5 mg/min + glucagon(1-21) 100 µg/kg/h
Method: 10 male rats, Wistar strain, 150 g (+/- 5 g) were anaesthetized with Pentobarbital. Polyethylene catheters were inserted into the right carotid artery for blood sampling and the left jugular vein for infusions. The rats were divided into two groups with 5 animals in each group. One group was infused with glucose (1.5 mg/min) from 0 to 60 minutes (placebo) and one group was infused with glucose (1.5 mg/min) + glucagon(1-21) (100 µg/kg/h) from […]. Blood was sampled into glasses on ice containing heparin (250 IU/ml) and aprotinin (600 KIU/ml) at the times 0, 1, 10, 20, 30, 40, 50, and 60 minutes. Insulin was determined by radio- immuno assay (RIA) on plasma.

[2] = system: isolated perfused rat pancreas; conditions: buffer glucose concentration 1.0 mg/ml corresponding to normoglycaemia or below; statement of Danish patent application No. 2885/81; cited from earlier work
rats [3] = assay: Experiment B2: oral glucose tolerance test in rats; format: in vivo, Wistar rats; conditions: glucose 5 g/kg perorally at 0 and 60 min, glucagon(1-21) 1 mg/kg at 0, 30, 60, 90 min
Method: The effect of glucagon(1-21) was investigated in rats during an oral glucose tolerance test. 20 male Wistar rats were divided into 2 groups of 10 rats-and dosed as follows: Both groups were dosed with glucose (5 g/kg, perorally) at 0 and 60 minutes. The placebo group was dosed with 1 ml of 0.9% saline with 0.1% HSA intraperitoneally at the times 0, 30, 60, and 90 minutes. The other group was dosed with glucagon(1-21) (1 mg/kg) in 0.9% saline with HSA . at the times 0, 30, 60, and 90 minutes. Blood samples were drawn from the tails at the times -5, 0, 15, 30, 45, 60, 90, and 120 minutes for blood glucose determination. The blood glucose values are stated in Table III below.

pigs [4] = assay: Experiment C2: oral glucose tolerance test in pigs; format: in vivo; conditions: cross-over, glucose 5 g/kg perorally at 0 and 60 min, glucagon(1-21) 1 mg/kg/h i.v. 0-120 min
Method: The effect of glucagon(1-21) on plasma glucose levels was investigated during an oral glucose tolerance test in pigs. 4 pigs were dosed in a cross-over experiment with glucose (5 g/kg) perorally at 0 and 60 minutes + placebo (saline with HSA) or glucagon(1-21) (1 mg/kg/h) from 0 to 120 minutes intravenously. Blood samples were drawn from an ear vein at the times -5, 10, 20, 30, 45, 60, 75, 90, 105, and 120 minutes and plasma glucose was assayed by the hexokinase method. The plasma glucose values are stated in Table V below: […]

Normoglycaemic Rats = assay: Experiment D: effect on plasma glucose and plasma IRI levels in normoglycaemic rats; format: in vivo, Wistar rats; conditions: for Blood glucose / Plasma IRI: i.v. injection at 0 min, equimolar doses (glucagon 1 mg/kg, glucagon(1-21) 0.77 mg/kg), mean, N = 10
Method: Glucagon (-1 mg/kg) and an equimolar dosis of glucagon(1-21), i.e. 0.77 mg/kg, were injected intravenously at the beginning time (time: 0 minutes) to normally fed male Wistar rats weighing 150 g (+/- 5 g). Blood samples were taken from the orbital plexus at the times -5, 2, 5, 10, 15, 30, and 60 minutes. Blood glucose was assayed according to the hexokinase method and plasma insulin was assayed by RIA. […] Contrary to glucagon, glucagon(1-21) had no effect on these parameters. Mean blood glucose values (N = 10) are stated in Table VI below, and mean plasma IRI values (N = 10) are stated in Table VII below.

pigs [5] = assay: Experiment C1: effect on plasma glucose in pigs during intravenous glucose infusion; format: in vivo, pigs (Danish breed/Yorkshire); conditions: for Plasma glucose: pigs, cross-over, i.v. glucose 0.7 g/kg/h + glucagon(1-21) 100 µg/kg/h 0-120 min
Method: The effect of glucagon(1-21) on plasma glucose levels was investigated during an intravenous glucose infusion. 4 female pigs (Danish breed/Yorkshire) weighing 30 kg (+/- 3 kg) were dosed with glucose (0.7 g/kg/h) as an intravenous infusion and with the same glucose infusion + infusion of glucagon(-1-21) (100µg/kg/h) from 0 to 120 minutes. The experiment was carried out as a cross-over experiment. The pigs were infused through intravenous ear catheters and blood samples were taken from the other ear at the times 0, 15, 30, 45, 60, 75, 90, 105, and 120 minutes. Glucose was analyzed by the hexokinase method and the blood glucose values are stated in Table IV below.

rats [6] = assay: Metabolic effects after administration to normally fasted and fed rats in vivo
rats [7] = assay: Experiment B1: effect on blood glucose in rats in vivo, intravenous glucose infusion; set-up: species or system Wistar rats; conditions: for Blood glucose: rats, i.v. glucose 2 mg/min 0-30 min, then infusion of 1 mg glucagon(1-21) 30-60 min
Method: Blood samples were drawn from the carotid artery at the times 0, 2, 5, 10, 20, 25, 30, 40, 50, and 60 minutes and blood glucose values were determined by the hexokinase method on an autoanalyzer. The blood glucose values are stated in Table II below.

[8] = normally fed rats, i.v., glucagon 1 mg/kg, glucagon(1-21) 0.77 mg/kg

glucagon-(1-21)-heneicosapeptide (HSQGTFTSDYSKYLDSRRAQD; Glucagon; UniProt P01275 53-73, looked up, fragment) [glucagon(1-21)]
IRI (rats [1]; time 0 min): 18 µU/ml
IRI (rats [1]; time 1 min): 43 µU/ml
IRI (rats [1]; time 10 min): 48 µU/ml
IRI (rats [1]; time 20 min): 62 µU/ml
IRI (rats [1]; time 30 min): 56 µU/ml
IRI (rats [1]; time 40 min): 56 µU/ml
IRI (rats [1]; time 50 min): 60 µU/ml
IRI (rats [1]; time 60 min): 55 µU/ml
insulin release [2]: does not release insulin
Blood glucose (rats [3]; time 0 min): 0.96 mg/mL
Blood glucose (rats [3]; time 15 min): 1.32 mg/mL
Blood glucose (rats [3]; time 30 min): 1.35 mg/mL
Blood glucose (rats [3]; time 45 min): 1.23 mg/mL
Blood glucose (rats [3]; time 60 min): 1.36 mg/mL
Blood glucose (rats [3]; time 90 min): 1.37 mg/mL
Blood glucose (rats [3]; time 120 min): 1.37 mg/mL
Blood glucose (rats [3]; time -5 min): 0.89 mg/mL
Plasma glucose (pigs [4]; time 10 min): 1.0 mg/mL
Plasma glucose (pigs [4]; time 20 min): 1.4 mg/mL
Plasma glucose (pigs [4]; time 30 min): 1.7 mg/mL
Plasma glucose (pigs [4]; time 45 min): 1.8 mg/mL
Plasma glucose (pigs [4]; time 60 min): 1.9 mg/mL
Plasma glucose (pigs [4]; time 75 min): 1.8 mg/mL
Plasma glucose (pigs [4]; time 90 min): 1.7 mg/mL
Plasma glucose (pigs [4]; time 105 min): 1.7 mg/mL
Plasma glucose (pigs [4]; time 120 min): 2.1 mg/mL
Plasma glucose (pigs [4]; time -5 min): 0.8 mg/mL
hyperglycaemia (Normoglycaemic Rats; in vivo in normally fed rats): does not cause hyperglycaemia
insulin release (Normoglycaemic Rats; in vivo in normally fed rats): does not cause hyperglycaemia or release insulin
IRI release and plasma glucose levels (Normoglycaemic Rats; infused to rats and pigs with plasma glucose levels below 1.2 mg/ml): neither release IRI nor influence the plasma glucose levels
Blood glucose (Normoglycaemic Rats; normally fed rats, time 2 min): 1.1 mg/mL
Plasma IRI (Normoglycaemic Rats; normally fed rats, time 2 min): 30 µU/ml
Blood glucose (Normoglycaemic Rats; normally fed rats, time 5 min): 1.1 mg/mL
Plasma IRI (Normoglycaemic Rats; normally fed rats, time 5 min): 33 µU/ml
Blood glucose (Normoglycaemic Rats; normally fed rats, time 10 min): 1.2 mg/mL
Plasma IRI (Normoglycaemic Rats; normally fed rats, time 10 min): 35 µU/ml
Blood glucose (Normoglycaemic Rats; normally fed rats, time 15 min): 1.3 mg/mL
Plasma IRI (Normoglycaemic Rats; normally fed rats, time 15 min): 43 µU/ml
Blood glucose (Normoglycaemic Rats; normally fed rats, time 30 min): 1.3 mg/mL
Plasma IRI (Normoglycaemic Rats; normally fed rats, time 30 min): 38 µU/ml
Blood glucose (Normoglycaemic Rats; normally fed rats, time 60 min): 1.3 mg/mL
Plasma IRI (Normoglycaemic Rats; normally fed rats, time 60 min): 30 µU/ml
Blood glucose (Normoglycaemic Rats; normally fed rats, time -5 min): 1.0 mg/mL
Plasma IRI (Normoglycaemic Rats; normally fed rats, time -5 min): 32 µU/ml
effect on blood glucose (Normoglycaemic Rats; [8]): no effect
effect on plasma IRI (Normoglycaemic Rats; [8]): no effect
glucose tolerance (pigs [5]; glucose primed pigs, infused intravenously): improves the glucose tolerance
Plasma glucose (pigs [5]; time 0 min): 0.9 mg/mL
Plasma glucose (pigs [5]; time 15 min): 1.5 mg/mL
Plasma glucose (pigs [5]; time 30 min): 1.7 mg/mL
Plasma glucose (pigs [5]; time 45 min): 1.8 mg/mL
Plasma glucose (pigs [5]; time 60 min): 1.9 mg/mL
Plasma glucose (pigs [5]; time 75 min): 1.8 mg/mL
Plasma glucose (pigs [5]; time 90 min): 2.0 mg/mL
Plasma glucose (pigs [5]; time 105 min): 1.9 mg/mL
Plasma glucose (pigs [5]; time 120 min): 1.9 mg/mL
metabolic effects (rats [6]): No metabolic effects have been found
glucose tolerance (rats [7]; glucose primed rats, infused intravenously): improves the glucose tolerance
Blood glucose (rats [7]; time 0 min): 1.0 mg/mL
Blood glucose (rats [7]; time 2 min): 1.2 mg/mL
Blood glucose (rats [7]; time 5 min): 1.4 mg/mL
Blood glucose (rats [7]; time 10 min): 1.5 mg/mL
Blood glucose (rats [7]; time 20 min): 1.7 mg/mL
Blood glucose (rats [7]; time 25 min): 1.9 mg/mL
Blood glucose (rats [7]; time 30 min): 1.9 mg/mL
Blood glucose (rats [7]; time 40 min): 1.3 mg/mL
Blood glucose (rats [7]; time 50 min): 1.0 mg/mL
Blood glucose (rats [7]; time 60 min): 0.8 mg/mL
